Laboratory results reported in PubChem BioAssay (NCI).
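Tested at 5 concentrations; 48 h exposure; 96-well plates; endpoints linearly interpolated, else capped at highest concentration. The concentration for 50% growth inhibition is given as GI50. TGI denotes the concentration required for complete inhibition of growth.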

Assays:
Experiment in all cases: DTP human tumour cell line panel, 48 h
MDA-MB-231 breast = tested on: MDA-MB-231 breast
NCI-H522 lung = tested on: NCI-H522 lung
UO-31 renal = tested on: UO-31 renal
HOP-92 NSCLC = tested on: HOP-92 NSCLC
UACC-62 melanoma = tested on: UACC-62 melanoma
SK-MEL-28 melanoma = tested on: SK-MEL-28 melanoma
U251 CNS = tested on: U251 CNS
SNB-19 CNS = tested on: SNB-19 CNS
HCT-116 colon = tested on: HCT-116 colon
SR leukemia = tested on: SR leukemia

Row | Structure (SMILES) | GI50 (MDA-MB-231 breast) | TGI (MDA-MB-231 breast) | GI50 (NCI-H522 lung) | TGI (NCI-H522 lung) | GI50 (UO-31 renal) | TGI (UO-31 renal) | GI50 (HOP-92 NSCLC) | TGI (HOP-92 NSCLC) | GI50 (UACC-62 melanoma) | TGI (UACC-62 melanoma) | GI50 (SK-MEL-28 melanoma) | TGI (SK-MEL-28 melanoma) | GI50 (U251 CNS) | TGI (U251 CNS) | GI50 (SNB-19 CNS) | TGI (SNB-19 CNS) | GI50 (HCT-116 colon) | TGI (HCT-116 colon) | GI50 (SR leukemia) | TGI (SR leukemia)
1 | CCCCON(OC(=O)c1ccccc1)C(=O)c1ccccc1 | > 100 µM | > 100 µM | > 100 µM | > 100 µM | > 100 µM | > 100 µM | > 100 µM | > 100 µM | > 100 µM | > 100 µM | > 100 µM | > 100 µM | > 100 µM | > 100 µM | > 100 µM | > 100 µM | > 100 µM | > 100 µM | 30.3 µM | > 100 µM
2 | O=[N+]([O-])c1ccc(S(=O)(=O)Cc2ccccc2)c([N+](=O)[O-])c1 |  | 5.99 µM |  | 2.81 µM |  | 2.95 µM |  | 3.38 µM |  | 5.22 µM |  | 8.24 µM |  | 4.91 µM |  | 39.6 µM |  | 3.51 µM |  | 6.03 µM
3 | COc1cccc(C2c3cc4c(cc3OC(C)(N3CCCC3)C2C)OCO4)c1OC (stereo not given) |  | 52.9 µM |  | 52.3 µM |  | 37.5 µM |  | 71.2 µM |  | 51.5 µM |  | > 100 µM |  | 24.5 µM |  | 95.5 µM |  | 17.7 µM |  | 22.5 µM
4 | Cc1nc(-c2cccc(Nc3nc(-c4ccc(Cl)cc4)cs3)c2)cs1 | 11.1 µM | 23.3 µM | 8.8 µM | 19 µM | 10 µM | 21.1 µM | 17.1 µM | > 50 µM | 6.83 µM | 15 µM | 9.6 µM | 21.3 µM | 8.34 µM | 16.4 µM | 12.8 µM | 28.9 µM | 11.6 µM | 27.5 µM | 8.31 µM | 27 µM
5 | COc1cc(C(=O)/C=C/c2c(C)n([O-])c3ccc(C)cc3[n+]2=O)cc(OC)c1OC | 10.6 µM | > 100 µM | 0.741 µM | 2.29 µM | 4.63 µM | 10.1 µM | 5.56 µM | > 27.1 µM | 8.46 µM | 32.4 µM | 2.41 µM | 6.54 µM | 7.74 µM | 21 µM | 20.8 µM | 46 µM | 1.54 µM | 2.95 µM | 2.15 µM | 7.42 µM
6 | FC(F)(F)Oc1cccc(-c2cnc3ccc(-c4ccncc4)nn23)c1 | 3.18 µM | > 100 µM | 0.771 µM | 2.82 µM | 0.708 µM | 4.77 µM | 1.8 µM | 7.82 µM | 1.01 µM | 6.17 µM | 2.53 µM | > 100 µM | 0.833 µM | > 100 µM | 2.07 µM | > 100 µM | 0.518 µM | > 100 µM | 0.744 µM | 11.8 µM
7 | O=C(O)CCNc1ccccc1C(=O)O |  | > 100 µM |  | > 100 µM |  | > 100 µM |  | > 100 µM |  | > 100 µM |  | > 100 µM |  | > 100 µM |  | > 100 µM |  | > 100 µM |  | > 100 µM
8 | Clc1ccc(CSC(Cn2ccnc2)c2ccc(Cl)cc2Cl)cc1 (stereo not given) | 1.51 µM | 2.98 µM | 1.13 µM | 2.48 µM | 1.38 µM | 4.48 µM | 0.914 µM | 2.44 µM | 1.17 µM | 2.43 µM | 1.69 µM | 3.06 µM | 1.39 µM | 2.68 µM | 1.52 µM | 2.89 µM | 1.26 µM | 2.51 µM | 2.3 µM | 5.8 µM
9 | O=C(NC1CCN(Cc2ccccc2)CC1)c1cc(-c2ccncc2)nc2ccc(Cl)cc12 | 4.5 µM | > 59.9 µM | 22.2 µM | 60.6 µM | 3.12 µM | 33.9 µM | 2.49 µM | 47.4 µM | 20.6 µM | > 85.3 µM | 10.5 µM | > 50.7 µM | 17.1 µM | > 71.7 µM | 26.3 µM | > 100 µM | 9.64 µM | 33.9 µM | 6.82 µM | 34.8 µM
10 | N#Cc1c(-c2ccccc2)nc(SCC2CO2)nc1N1CCOCC1 (stereo not given) | 15.8 µM | > 100 µM | 27.5 µM | > 100 µM | 5.61 µM | > 100 µM | 0.284 µM | 1.22 µM | 3.52 µM | > 86.9 µM | 5.11 µM | 76.5 µM | 19.2 µM | > 100 µM | 64.4 µM | > 100 µM | 20.5 µM | > 100 µM | 12.3 µM | > 53.3 µM
11 | C/C(=N\NC(=O)c1sc(=S)n(C)c1N)c1cc2ccccc2o1 | 4.86 µM | 16.5 µM | 15.5 µM | 39 µM | 18.3 µM | 37.8 µM | 10.3 µM | 25.4 µM | 18.5 µM | 61.8 µM | 21.6 µM | > 100 µM | 13.6 µM | 29 µM | 17.1 µM | 45.6 µM | 16.2 µM | 32 µM | 8.04 µM | 22 µM
12 | CCCCC[C@H](O)/C=C/[C@@H]1[C@@H](C/C=C\CCCC(=O)O)[C@@H](O)C[C@H]1O | > 100 µM | > 100 µM | > 100 µM | > 100 µM | > 100 µM | > 100 µM | > 100 µM | > 100 µM | > 100 µM | > 100 µM | > 100 µM | > 100 µM | > 100 µM | > 100 µM | > 100 µM | > 100 µM | > 100 µM | > 100 µM | > 100 µM | > 100 µM
